Data: the supplement of paper PMC5908809

What was measured:
[1] = system: normal NK cells expanded with K562-aAPC; assay: percent inhibition of viability; higher = more inhibition; conditions: 72 h, IL-2 2.5 ng/mL
Experimental: (§1)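 Drug sensitivity and resistance testing on K562-aAPC-expanded normal NK cells: 5 concentrations (10-fold steps over a 10,000-fold range), 72 h at 37 °C, viability by CellTiter-Glo normalised to DMSO and benzethonium chloride controls; DSS from the fitted curve.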

DERL-7 (IL-2 2.5 ng/mL) [2] = assay: as above; conditions: 72 h
IMC-1 (IL-2 20 ng/mL) [3] = assay: as above; conditions: 72 h
KAI3 (IL-2 2.5 ng/mL) [4] = assay: as above; conditions: 72 h
KHYG-1 (IL-2 2.5 ng/mL) [5] = assay: as above; conditions: 72 h
NK-92 (IL-2 2.5 ng/mL) [6] = assay: as above; conditions: 72 h
NK-YS (IL-2 2.5 ng/mL) [7] = assay: as above; conditions: 72 h
NKL (IL-2 2.5 ng/mL) [8] = assay: as above; conditions: 72 h
SNK-6 (IL-2 2.5 ng/mL) [9] = assay: as above; conditions: 72 h
YT (IL-2 2.5 ng/mL) [10] = assay: as above; conditions: 72 h
[11] = system: normal primary NK cells, pool 1 (3 donors) (IL-2 2.5 ng/mL); assay: as above; conditions: 72 h
[12] = system: normal primary NK cells, pool 1 (3 donors), resting (IL-2 0 ng/mL); assay: as above; conditions: 72 h
[13] = system: normal primary NK cells, pool 2 (3 donors) (IL-2 2.5 ng/mL); assay: as above; conditions: 72 h
[14] = system: normal primary NK cells, pool 3 (3 donors) (IL-2 2.5 ng/mL); assay: as above; conditions: 72 h
[15] = system: normal NK cells expanded with K562-aAPC; assay: drug sensitivity score (DSS) (DSS units); higher = more sensitive; extreme values may be limits of the assay; conditions: 72 h; IL-2 2.5 ng/mL
Experimental: as §1

DERL-7 (IL-2 2.5 ng/mL) [16] = assay: as above; conditions: 72 h
IMC-1 (IL-2 20 ng/mL) [17] = assay: as above; conditions: 72 h
KAI3 (IL-2 2.5 ng/mL) [18] = assay: as above; conditions: 72 h
KHYG-1 (IL-2 2.5 ng/mL) [19] = assay: as above; conditions: 72 h
NK-92 (IL-2 2.5 ng/mL) [20] = assay: as above; conditions: 72 h
NK-YS (IL-2 2.5 ng/mL) [21] = assay: as above; conditions: 72 h
NKL (IL-2 2.5 ng/mL) [22] = assay: as above; conditions: 72 h
SNK-6 (IL-2 2.5 ng/mL) [23] = assay: as above; conditions: 72 h
YT (IL-2 2.5 ng/mL) [24] = assay: as above; conditions: 72 h
[25] = system: normal primary NK cells, pool 1 (3 donors) (IL-2 2.5 ng/mL); assay: as above; conditions: 72 h
[26] = system: normal primary NK cells, pool 1 (3 donors), resting (IL-2 0 ng/mL); assay: as above; conditions: 72 h
[27] = system: normal primary NK cells, pool 2 (3 donors) (IL-2 2.5 ng/mL); assay: as above; conditions: 72 h
[28] = system: normal primary NK cells, pool 3 (3 donors) (IL-2 2.5 ng/mL); assay: as above; conditions: 72 h

CCC1(c2ccc(N)cc2)CCC(=O)NC1=O (centres undefined) [Aminoglutethimide] (max concentration tested 10000 nM)
percent inhibition of viability [%]
Conditions | 1 nM | 10 nM | 100 nM | 1000 nM | 10000 nM
DERL-7 (IL-2 2.5 ng/mL) [2] | 6.92 | 1.97 | 7.28 | -2.32 | 7.58
IMC-1 (IL-2 20 ng/mL) [3] | 1.84 | 4.93 | 3.29 | 2.36 | 3.88
KAI3 (IL-2 2.5 ng/mL) [4] | 14 | 10.4 | 8.76 | 9.73 | 9.01
KHYG-1 (IL-2 2.5 ng/mL) [5] | 16.4 | 0 | 11 | 1.44 | 15.2
NK-92 (IL-2 2.5 ng/mL) [6] | 7.96 | 0.54 | 12.4 | 0.81 | 11.1
NK-YS (IL-2 2.5 ng/mL) [7] | 4.81 | 6.87 | 2.26 | 7.56 | 4.69
NKL (IL-2 2.5 ng/mL) [8] | 28.3 | 0.83 | 18.7 | -2.97 | 15.1
SNK-6 (IL-2 2.5 ng/mL) [9] | 21.1 | 17.4 | 10.2 | -16 | -32.7
YT (IL-2 2.5 ng/mL) [10] | 13.1 | 2.62 | 11.4 | 2.84 | 12.5
[1] | 1.05 | -2.97 | -1 | -2.85 | 0.83
[11] | -5.3 | -8.94 | -8.74 | -4.93 | 1.17
[12] | -3.93 | -9.4 | -1.78 | -7.06 | 21.1
[13] | 3.13 | 3.88 | 0.19 | 1.2 | 8.45
[14] | 4.12 | -2.09 | 1.89 | 3.88 | 6.3

Conditions | drug sensitivity score
DERL-7 (IL-2 2.5 ng/mL) [16] | 0
IMC-1 (IL-2 20 ng/mL) [17] | 0
KAI3 (IL-2 2.5 ng/mL) [18] | 0
KHYG-1 (IL-2 2.5 ng/mL) [19] | 0
NK-92 (IL-2 2.5 ng/mL) [20] | 0
NK-YS (IL-2 2.5 ng/mL) [21] | 0
NKL (IL-2 2.5 ng/mL) [22] | 0.06
SNK-6 (IL-2 2.5 ng/mL) [23] | 0
YT (IL-2 2.5 ng/mL) [24] | 0
[15] | 0
[25] | 0
[26] | 0.43
[27] | 0
[28] | 0
